“Also recorded” adds a separate entry of the source.
Experiments:
Format in all cases: cell-based
BRD4 [1] = target: T1, BRD4 (Homo sapiens, UniProt O60885); assay: Summary of BRD4 degradation by CURE-PRO pairs, estimated from Western Blot or WES; set-up: endogenous in cells; settings: for Degradation of BRD4, combination with CRBN ligand 8048: Table 4, aromatic 1,2-diol BRD4 ligand + 8048
Description: (§1) Namalwa, Ramosm HeLa, MCF7, or HT29 HCT116 cells (2.5-3×10^6) were treated for 24 hours with the indicated compounds solubilized in DMSO. The cells were washed in ice-cold PBS and were then lysed in RIPA lysis buffer (150 mM NaCl, 5 mM EDTA, 1% NP-40, 0.5% sodium deoxycholate, 0.1% SDS, 50 mM Tris, pH 8.0.) with Roche protease inhibitor complete cocktail and phosphatase inhibitors (10 mM sodium fluoride, 10 mM sodium pyrophosphate, 1 mM sodium orthovanadate and 20 mM β-glycerophosphate). The total protein concentrations were determined by Bradford Protein Assay (Pierce) and 10-20 μg of protein was loaded onto 4-15% Tris-Glycine gradient gels (Biorad). After standard gel electrophoresis, the separated proteins were transferred to PVDF membrane by wet transfer. The immunoblots were then blocked for 1 hour in 5% skim milk in TBST or 5% BSA in TBST, according to manufacturer's instructions, before an overnight incubation at 4° C. with indicated antibodies and membranes. Membranes were then incubated with the appropriate horseradish peroxidase-conjugated secondary antibodies (1:5,000 dilution) for 1 h at room temperature and the bands were visualized using the Clarity Max Western ECL Substrate (Biorad) and the ChemiDoc Imaging System (Biorad). Signal was detected with ECL Western Blotting Substrate (Pierce) and X-ray film processed with a Konica SRX-101 X-ray film processor or captured by Bio-Rad's Chemidoc Imaging system.
(§2) WES Simple analysis was performed on WES system (ProteinSimple-Biotechne) according to the manufacturer's instructions. Total protein concentrations of cell lysates were determined by the Pierce BCA kit (Thermo Fisher). 3 μL of 0.3 μg/μL of the protein lysate was loaded onto a 12- to 230-kDa WES assay plate (ProteinSimple) where 300 nL sample was withdrawn through a capillary, subjected to electrophoretic separation of proteins by size, and followed by the simultaneous, HRP-based detection of proteins using the Anti-Rabbit Detection Module (Proteinsimple: #DM-001). The electropherograms were checked then the automatic peak detection was manually corrected if it was required.
(§3) A black check mark indicates efficacy of 30% to 70% or higher protein degradation.

BRD4 [2] = target: T1, BRD4; assay: CURE-PRO-mediated BRD4 degradation in HeLa cells, Western blot; set-up: endogenous in cells; host or cells: HeLa; settings: 24 h
Description: All cell lines were purchased from ATCC or DSMZ and grown at 37° C. with 5% CO2. Human HeLa cells were cultured in complete growth medium (Dulbecco's modified Eagle's medium (DMEM) supplemented with 10% FBS); MCF7 cells were cultured in complete growth medium (Dulbecco's modified Eagle's medium (DMEM) supplemented with 10% FBS and 0.01 mg/ml human recombinant insulin (Sigma Aldrich); Namalwa and Ramos cells were cultured in complete growth medium (RPMI 1640 medium supplemented with 10% FBS); HCT116 and HT29 cells were cultured in complete growth medium (McCoy's 5a Medium supplemented with 10% FBS). For cellular degradation of BRD4 studies cells were seeded in a 12-well plate at 70-80% confluency, allowed to attach overnight, and incubated with the indicated compounds for the indicated time. When indicated, a 15-minute pretreatment with 10 μM pomalidomide, 10 μM VHL298, 10 μM Nutlin3a, 1 μM MG-132 or 1 μM Carfilzomib was performed before the addition of CURE-PROs. For washout studies, after CURE-PRO treatment, media was aspirated and incubated with complete medium for the indicated time before lysis.
as §1
HeLa cells (2.5×10^6) were treated for 24 hours with the sample compounds solubilized in DMSO. Compounds were added at 1-10 μM each. Standardized protein samples were electrophoresed and imaged as described in the immunoblotting description above. FIGS. 6-18 depicts the CURE-PRO-mediated BRD4 degradation for BRD monomers (JQ1 derivatives comprising of catechol linkers), and CRBN ligands, 8048 and 8049 (pomalidomide derivatives comprising boronic acid linkers) combined in a 1:1 ratio.
HeLa cells (2.5×10^6) were treated for 24 hours with the compounds solubilized in DMSO. The compounds were added at 10 μM each. Standardized protein samples were electrophoresed and imaged as described in the immunoblotting section above. FIGS. 23-27 depicts the CURE-PRO-mediated BRD4 degradation for BRD monomers (JQ1 derivatives comprising of boronic acid linkers), and CRBN ligands, 8046, 8047 and 8066 (pomalidomide derivatives comprising diol linkers) combined in a 1:1 ratio.
HeLa cells (2.5×10^6) were treated for 24 hours with the compounds solubilized in DMSO. Compounds were added at 10 μM and 100 μM each. Standardized protein samples were electrophoresed and imaged as described in the immunoblotting section above.
HeLa cells (2.5×10^6) were treated for 24 hours with the compounds solubilized in DMSO. Compounds were added at 1 nM-1 μM each. […]

c-MYC = c-MYC (Homo sapiens, UniProt P01106); assay: Summary of C-MYC degradation by CURE-PRO pairs, estimated from Western Blot or WES; set-up: endogenous in cells; host or cells: HT29; settings: for Degradation of C-MYC, combination with CRBN ligand 8066: Table 7, aryl-boronic acid MYC ligand + 8066
Chain of c-MYC (P01106 whole entry): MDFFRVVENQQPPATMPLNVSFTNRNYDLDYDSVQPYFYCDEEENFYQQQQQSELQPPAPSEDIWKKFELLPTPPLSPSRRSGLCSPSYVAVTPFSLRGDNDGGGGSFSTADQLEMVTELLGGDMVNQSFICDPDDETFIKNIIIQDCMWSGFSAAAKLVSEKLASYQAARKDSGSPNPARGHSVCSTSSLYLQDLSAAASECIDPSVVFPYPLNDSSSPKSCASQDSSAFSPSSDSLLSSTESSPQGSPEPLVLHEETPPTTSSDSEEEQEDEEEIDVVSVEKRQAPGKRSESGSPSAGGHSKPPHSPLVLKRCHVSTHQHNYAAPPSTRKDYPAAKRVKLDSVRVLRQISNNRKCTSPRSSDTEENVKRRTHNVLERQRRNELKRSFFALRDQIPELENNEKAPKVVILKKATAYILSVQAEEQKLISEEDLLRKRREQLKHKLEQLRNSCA
Description: as §1, §2, §3

[3] = BRD4 monomer alone, HeLa, 1-10 μM
[4] = co-treated 1:1 with CRBN ligand 8048, HeLa, 1-10 μM each
[5] = co-treated 1:1 with CRBN ligand 8049, HeLa, 1-10 μM each

Structure (SMILES) | Degradation of BRD4, combination with CRBN ligand 8048 (BRD4 [1]) | BRD4 degradation (BRD4 [2]; [3]) | BRD4 degradation (BRD4 [2]; [4]) | BRD4 degradation (BRD4 [2]; [5]) | Degradation of BRD4, combination with CRBN ligand 8049 (BRD4 [1]; Table 4, aromatic 1,2-diol BRD4 ligand + 8049) | Degradation of BRD4, combination with MDM2 ligand 8312 (BRD4 [1]; Table 5, aromatic 1,2-diol BRD4 ligand + 8312) | Degradation of C-MYC, combination with CRBN ligand 8046 (c-MYC; Table 7, aryl-boronic acid MYC ligand + 8046) | Degradation of C-MYC, combination with CRBN ligand 8066 (c-MYC)
COc1ccc2c(c1)C(c1ccc(Cl)cc1)=N[C@@H](CC(=O)NCCNC(=O)c1ccc(O)c(O)c1)c1nnc(C)n1-2 [BRD-N1] | √ (A black check mark indicates efficacy of 30% to 70% or higher protein degradation) | there is no degradation of BRD4 | causes degradation of BRD4; also recorded: Degradation is noted |  |  |  |  | 
COc1ccc2c(c1)C(c1ccc(Cl)cc1)=N[C@@H](CC(=O)NCCCCNC(=O)c1ccc(O)c(O)c1)c1nnc(C)n1-2 [BRD-N5] | √ (A black check mark indicates efficacy of 30% to 70% or higher protein degradation) | there is no degradation of BRD4 | causes degradation of BRD4; also recorded: Degradation is noted | no evidence of BRD4 degradation |  |  |  | 
COc1ccc2c(c1)C(c1ccc(Cl)cc1)=N[C@@H](CC(=O)NCCCCNC(=O)c1cccc(O)c1O)c1nnc(C)n1-2 [BRD-N6] | √ (A black check mark indicates efficacy of 30% to 70% or higher protein degradation) | there is no degradation of BRD4 | causes degradation of BRD4; also recorded: Degradation is noted | no evidence of BRD4 degradation |  |  |  | 
CCNC(=O)C[C@@H]1N=C(c2ccc(Cl)cc2)c2cc(OCCCCC(=O)Nc3ccc(O)c(O)c3)ccc2-n2c(C)nnc21 [BRD-N22, 5-(((4S)-6-(4-chlorophenyl)-4-(2-(ethylamino)-2-oxoethyl)-1-methyl-4H-benzo[f][1,2,4]triazolo[4,3-a][1,4]diazepin-8-yl)oxy)-N-(3,4-dihydroxyphenyl)pentanamide] | √ (A black check mark indicates efficacy of 30% to 70% or higher protein degradation) | there is no degradation of BRD4 | causes degradation of BRD4; also recorded: Degradation is noted | no evidence of BRD4 degradation |  |  |  | 
COc1ccc2c(c1)C(c1ccc(Cl)cc1)=N[C@@H](CC(=O)NCCNC(=O)Cc1ccc(O)c(O)c1)c1nnc(C)n1-2 [BRD-N30] | √ (A black check mark indicates efficacy of 30% to 70% or higher protein degradation) | there is no degradation of BRD4 | causes degradation of BRD4 |  |  |  |  | 
CCNC(=O)C[C@@H]1N=C(c2ccc(Cl)cc2)c2cc(OCCOCCNC(=O)c3ccc(O)c(O)c3)ccc2-n2c(C)nnc21 [BRD-N38, N-(2-(2-(((4S)-6-(4-chlorophenyl)-4-(2-(ethylamino)-2-oxoethyl)-1-methyl-4H-benzo[f][1,2,4]triazolo[4,3-a][1,4]diazepin-8-yl)oxy)ethoxy)ethyl)-3,4-dihydroxybenzamide] | √ (A black check mark indicates efficacy of 30% to 70% or higher protein degradation) | there is no degradation of BRD4 | causes degradation of BRD4 |  |  |  |  | 
COc1ccc2c(c1)C(c1ccc(Cl)cc1)=N[C@@H](CC(=O)NCCOCCOCCOCCNC(=O)c1ccc(O)c(O)c1)c1nnc(C)n1-2 [BRD-N44] | √ (A black check mark indicates efficacy of 30% to 70% or higher protein degradation) | there is no degradation of BRD4 | causes degradation of BRD4 |  |  |  |  | 
CCNC(=O)C[C@@H]1N=C(c2ccc(Cl)cc2)c2cc(-c3ccc4cc(O)c(O)cc4c3)ccc2-n2c(C)nnc21 [BRD-N67] | √ (A black check mark indicates efficacy of 30% to 70% or higher protein degradation) | there is no degradation of BRD4 | causes degradation of BRD4 | causes degradation of BRD4 | √ (A black check mark indicates efficacy of 30% to 70% or higher protein degradation) |  |  | 
COc1ccc2c(c1)C(c1ccc(Cl)cc1)=N[C@@H](CC(=O)NCCOCCOCCOCCOCCNC(=O)c1ccc(O)c(O)c1)c1nnc(C)n1-2 [BRD-N69] | √ (A black check mark indicates efficacy of 30% to 70% or higher protein degradation) | there is no degradation of BRD4 | causes degradation of BRD4; also recorded: Degradation is noted | no evidence of BRD4 degradation |  |  |  | 
CCNC(=O)C[C@@H]1N=C(c2ccc(Cl)cc2)c2cc(OCCOCCOCCOCCOCCOCCNC(=O)c3ccc(O)c(O)c3)ccc2-n2c(C)nnc21 [BRD-N70, N-(17-(((4S)-6-(4-chlorophenyl)-4-(2-(ethylamino)-2-oxoethyl)-1-methyl-4H-benzo[f][1,2,4]triazolo[4,3-a][1,4]diazepin-8-yl)oxy)-3,6,9,12,15-pentaoxaheptadecyl)-3,4-dihydroxybenzamide] | √ (A black check mark indicates efficacy of 30% to 70% or higher protein degradation) |  | causes degradation of BRD4; also recorded: Degradation is noted | no evidence of BRD4 degradation |  |  |  | 
CCNC(=O)C[C@@H]1N=C(c2ccc(Cl)cc2)c2cc(OCCOCCOCCOCCOCCOCCNC(=O)c3cccc(O)c3O)ccc2-n2c(C)nnc21 [BRD-N71, N-(17-(((4S)-6-(4-chlorophenyl)-4-(2-(ethylamino)-2-oxoethyl)-1-methyl-4H-benzo[f][1,2,4]triazolo[4,3-a][1,4]diazepin-8-yl)oxy)-3,6,9,12,15-pentaoxaheptadecyl)-2,3-dihydroxybenzamide] | √ (A black check mark indicates efficacy of 30% to 70% or higher protein degradation) | there is no degradation of BRD4 | causes degradation of BRD4; also recorded: Some selectivity for BRD-N71 and 8048 is noted | no evidence of BRD4 degradation |  | √ (A black check mark indicates efficacy of 30% to 70% or higher protein degradation) |  | 
CCc1ccc(/C=C2\SC(=O)N(CCCc3cccc(B(O)O)c3)C2=O)cc1 [MYC- E02] |  |  |  |  |  |  | √ (A black check mark indicates efficacy of 30% to 70% or higher protein degradation) | √ (A black check mark indicates efficacy of 30% to 70% or higher protein degradation)
O=C(NCc1ccc(B(O)O)cc1)c1cccc(Nc2ccc([N+](=O)[O-])c3nonc23)c1 [MYC- E09] |  |  |  |  |  |  |  | √ (A black check mark indicates efficacy of 30% to 70% or higher protein degradation)

From patent US20230285570A1, “THERAPEUTICALLY USEFUL CURE-PRO MOLECULES FOR E3 LIGASE MEDIATED DEGRADATION OF PROTEINS, AND METHODS OF MAKING AND USING THEM” (CORNELL UNIVERSITY, priority 2020, published 2023)
